Values quoted from earlier work as cited in patent publication US20050181032A1, “Metastable pharmaceutical compositions” (Acrux DDS Pty Ltd., priority 2002, published 2005).

LogP: 3.91
Structure (SMILES): C#C[C@]1(O)CC[C@H]2[C@@H]3CCc4cc(O)ccc4[C@H]3CC[C@@]21C [EE2, Ethinyl Estradiol]
